Results from patent US20240102991A1, “Synthetic Fluorescent Protein Biosensors and Use Thereof in Drug Screening Methods” (The Regents of the University of Colorado, a body corporate, priority 2017, published 2024).

Tested on: biosensor expressing cells (HEK293T)
Type: cell-based, human

With Cholera Toxin as the substance, how does the “biosensors that respond in some way to the single drug treatment” value read?
Its value is > 80%.
